Results: US9364479B2, “Use of a receptor-type kinase modulator for treating polycystic kidney disease” (SYMPHONY EVOLUTION, INC., priority 2010, dated 2016)
Marks after values point to notes of the source that are not given here.

What was measured:
EphB4 = target: T1, EphB4 (Homo sapiens, UniProt P54760); assay: EphB4 autophosphorylation ELISA, EphB4/Hep3B cells; format: cell-based; settings: read-out: Cellular IC50, autophosphorylation
T1 construct: expressed in transfected cells; host or cells: Hep3B
T1 sequence (P54760 16-987): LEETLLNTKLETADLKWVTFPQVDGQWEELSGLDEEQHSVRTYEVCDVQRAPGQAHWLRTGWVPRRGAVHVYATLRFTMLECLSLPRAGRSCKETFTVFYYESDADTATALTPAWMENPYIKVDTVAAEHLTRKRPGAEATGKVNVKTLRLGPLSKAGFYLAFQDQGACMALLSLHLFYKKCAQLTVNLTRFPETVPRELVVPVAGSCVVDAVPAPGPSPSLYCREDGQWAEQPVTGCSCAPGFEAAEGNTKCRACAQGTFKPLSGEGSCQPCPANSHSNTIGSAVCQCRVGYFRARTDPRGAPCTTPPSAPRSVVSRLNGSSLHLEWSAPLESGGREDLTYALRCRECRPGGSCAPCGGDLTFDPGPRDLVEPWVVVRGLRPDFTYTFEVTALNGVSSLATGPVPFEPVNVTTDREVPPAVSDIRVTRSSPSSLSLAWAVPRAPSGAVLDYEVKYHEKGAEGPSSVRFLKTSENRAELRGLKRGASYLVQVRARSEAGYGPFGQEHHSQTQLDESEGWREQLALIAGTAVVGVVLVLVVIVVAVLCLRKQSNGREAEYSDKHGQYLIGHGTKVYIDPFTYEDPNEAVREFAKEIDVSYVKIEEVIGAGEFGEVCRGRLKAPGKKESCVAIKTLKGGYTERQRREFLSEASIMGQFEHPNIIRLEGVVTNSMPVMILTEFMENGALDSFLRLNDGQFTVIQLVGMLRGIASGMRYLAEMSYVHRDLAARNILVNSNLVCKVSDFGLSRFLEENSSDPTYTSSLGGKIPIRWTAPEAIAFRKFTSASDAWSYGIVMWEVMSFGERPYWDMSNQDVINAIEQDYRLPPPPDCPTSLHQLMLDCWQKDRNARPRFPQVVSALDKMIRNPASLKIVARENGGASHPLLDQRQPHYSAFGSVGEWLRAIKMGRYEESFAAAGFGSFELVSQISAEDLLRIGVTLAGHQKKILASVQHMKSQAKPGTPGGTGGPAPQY
Method: The EphB4 autophosphorylation ELISA utilized EphB4/Hep3B cells. Cells were seeded at 2×10^4 cells/well onto 96-well microtiter plates (Costar 3904), in MEME (Cellgro) containing 10% FBS (Heat-Inactivated, Hyclone), 1% penicillin-streptomycin (Cellgro) and 450 μg/ml G418 (Invitrogen). The cells were then incubated at 37° C., 5% CO2 for 24 h. Growth media was replaced with serum-free MEME and cells were incubated for an additional 16 h. […] Negative control wells were not treated with growth factor. Following treatment, media was removed, the cell monolayer washed with cold PBS and immediately lysed with cold lysis buffer (50 mM Tris-HCl, pH 8.0, 200 mM NaCl, 0.5% NP-40, 0.2% sodium deoxcholate, 1 mM EDTA, 50 mM NaF, 1 mM sodium pyrophosphate, 1 mM sodium orthovanadate, 2 mM phenylmethylsulfonyl fluoride, 10 μg/ml aprotinin, 5 μg/ml leupeptin and 5 μg/ml pepstatin A). Lysates were centrifuged and incubated in blocked (1% BSA) high-binding 96-well plates (Costar 3925) coated with anti-mouse EphB4 (2.5 μg/ml, R&D Systems). Plates were then incubated with HRP-conjugated anti-phosphotyrosine cocktail (1:10,000, Zymed Laboratories, Inc) followed by the addition of a luminol-based substrate solution. Plates were read using a Victor spectrophotometer (Wallac).

[1] = system: Corticotropin Releasing Factor, Non-selective; assay: NovaScreen assay; format: binding
p-Y-HER2/ErbB2 = target: T2, p-Y-HER2/ErbB2 (Homo sapiens, UniProt P04626); assay: In vivo receptor phosphorylation, BT474 xenografts; parameters: species or system mouse; settings: Phospho
T2 construct: endogenous in cells; host or cells: BT474 tumour xenografts in mice (per the earlier reading)
T2 sequence (P04626 23-1255): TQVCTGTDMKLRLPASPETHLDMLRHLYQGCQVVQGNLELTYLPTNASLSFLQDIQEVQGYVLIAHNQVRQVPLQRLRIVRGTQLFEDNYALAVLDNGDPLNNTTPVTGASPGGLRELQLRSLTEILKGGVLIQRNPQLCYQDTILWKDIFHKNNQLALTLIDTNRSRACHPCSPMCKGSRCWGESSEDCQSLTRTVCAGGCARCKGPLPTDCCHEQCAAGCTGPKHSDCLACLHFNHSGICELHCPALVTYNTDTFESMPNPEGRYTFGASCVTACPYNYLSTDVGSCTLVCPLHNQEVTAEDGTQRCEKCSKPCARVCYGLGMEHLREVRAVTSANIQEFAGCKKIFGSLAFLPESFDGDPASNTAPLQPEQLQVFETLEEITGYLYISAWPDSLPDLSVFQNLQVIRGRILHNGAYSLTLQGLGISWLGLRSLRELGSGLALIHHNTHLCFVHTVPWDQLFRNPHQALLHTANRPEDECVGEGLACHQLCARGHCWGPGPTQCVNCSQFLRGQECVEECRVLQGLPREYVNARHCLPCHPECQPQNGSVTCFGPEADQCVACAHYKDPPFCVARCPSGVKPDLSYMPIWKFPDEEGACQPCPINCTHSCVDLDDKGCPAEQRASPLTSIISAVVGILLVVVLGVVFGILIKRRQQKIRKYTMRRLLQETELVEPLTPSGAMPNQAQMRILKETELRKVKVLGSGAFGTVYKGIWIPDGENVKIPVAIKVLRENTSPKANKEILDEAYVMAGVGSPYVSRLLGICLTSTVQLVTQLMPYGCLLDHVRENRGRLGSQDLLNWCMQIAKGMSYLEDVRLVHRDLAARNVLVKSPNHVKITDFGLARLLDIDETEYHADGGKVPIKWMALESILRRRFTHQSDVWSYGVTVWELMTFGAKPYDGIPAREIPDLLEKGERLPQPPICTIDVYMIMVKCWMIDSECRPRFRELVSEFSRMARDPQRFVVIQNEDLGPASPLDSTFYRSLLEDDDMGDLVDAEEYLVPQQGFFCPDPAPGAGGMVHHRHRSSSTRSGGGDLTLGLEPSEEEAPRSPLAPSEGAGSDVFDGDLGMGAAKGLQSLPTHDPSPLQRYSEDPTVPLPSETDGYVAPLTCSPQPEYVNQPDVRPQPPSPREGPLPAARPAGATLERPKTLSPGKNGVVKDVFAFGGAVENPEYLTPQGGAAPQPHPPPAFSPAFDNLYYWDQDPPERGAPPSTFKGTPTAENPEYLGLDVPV

Vasopressin 1 = target: T3, Vasopressin 1 (Homo sapiens, UniProt P37288); assay: NovaScreen assay; format: binding; settings: read-out: Inhibition, 10 μM XL-647
T3 construct: NovaScreen
T3 sequence (P37288 whole entry): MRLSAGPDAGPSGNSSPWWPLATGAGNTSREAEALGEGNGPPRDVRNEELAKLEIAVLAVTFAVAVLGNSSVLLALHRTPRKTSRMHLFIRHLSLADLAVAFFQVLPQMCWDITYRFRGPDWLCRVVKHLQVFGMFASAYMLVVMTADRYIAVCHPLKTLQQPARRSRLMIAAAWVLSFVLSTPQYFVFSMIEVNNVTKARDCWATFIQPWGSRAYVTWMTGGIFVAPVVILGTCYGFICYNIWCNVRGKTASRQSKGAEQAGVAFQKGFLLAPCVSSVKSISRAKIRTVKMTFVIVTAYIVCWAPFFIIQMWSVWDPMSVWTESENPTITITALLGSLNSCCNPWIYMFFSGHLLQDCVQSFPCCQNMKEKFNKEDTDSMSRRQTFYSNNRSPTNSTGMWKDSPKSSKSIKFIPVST

CYP3A4 = CYP3A4 (Homo sapiens, UniProt P08684); settings: microsomes
Sequence of CYP3A4 (P08684 whole entry): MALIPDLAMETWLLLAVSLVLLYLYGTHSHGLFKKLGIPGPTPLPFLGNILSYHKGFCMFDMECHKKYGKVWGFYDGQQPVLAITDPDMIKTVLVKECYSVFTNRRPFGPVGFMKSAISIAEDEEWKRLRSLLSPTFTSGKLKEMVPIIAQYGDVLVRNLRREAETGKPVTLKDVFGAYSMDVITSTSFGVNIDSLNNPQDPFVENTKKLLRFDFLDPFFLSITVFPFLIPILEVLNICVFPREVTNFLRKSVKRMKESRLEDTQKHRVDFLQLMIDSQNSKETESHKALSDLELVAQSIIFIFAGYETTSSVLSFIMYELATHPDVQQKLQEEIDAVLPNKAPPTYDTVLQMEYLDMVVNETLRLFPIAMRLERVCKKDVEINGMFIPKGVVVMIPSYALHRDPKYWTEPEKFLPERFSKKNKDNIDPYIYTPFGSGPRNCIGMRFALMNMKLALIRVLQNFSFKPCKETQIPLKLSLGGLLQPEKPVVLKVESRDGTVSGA

[2] = target: T4, Monoamine Oxidase B, Peripheral (Rattus norvegicus, UniProt P19643); assay: NovaScreen assay; format: biochemical; settings: read-out: Inhibition, 10 μM XL-647
T4 construct: NovaScreen
T4 sequence (P19643 whole entry): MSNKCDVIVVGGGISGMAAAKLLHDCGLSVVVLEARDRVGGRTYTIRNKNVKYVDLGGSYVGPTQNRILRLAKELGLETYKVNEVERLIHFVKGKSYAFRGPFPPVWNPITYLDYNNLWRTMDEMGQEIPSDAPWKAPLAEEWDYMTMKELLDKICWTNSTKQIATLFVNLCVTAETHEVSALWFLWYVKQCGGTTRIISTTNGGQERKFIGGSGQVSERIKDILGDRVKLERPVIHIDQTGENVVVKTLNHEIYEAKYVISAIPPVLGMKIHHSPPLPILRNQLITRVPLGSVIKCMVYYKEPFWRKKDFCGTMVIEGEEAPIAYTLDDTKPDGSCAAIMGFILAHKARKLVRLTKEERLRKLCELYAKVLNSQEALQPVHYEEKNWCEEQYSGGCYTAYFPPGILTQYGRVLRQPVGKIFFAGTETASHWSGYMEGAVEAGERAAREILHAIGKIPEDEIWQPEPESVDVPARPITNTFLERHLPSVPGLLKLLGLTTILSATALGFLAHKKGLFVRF

[3] = system: Calcium Channel, Type L (Dihydropyridine Site); assay: NovaScreen assay; format: binding
Serotonin Transporter = target: T5, Serotonin Transporter (Homo sapiens, UniProt P31645); assay: NovaScreen assay; format: binding
T5 construct: NovaScreen
T5 sequence (P31645 whole entry): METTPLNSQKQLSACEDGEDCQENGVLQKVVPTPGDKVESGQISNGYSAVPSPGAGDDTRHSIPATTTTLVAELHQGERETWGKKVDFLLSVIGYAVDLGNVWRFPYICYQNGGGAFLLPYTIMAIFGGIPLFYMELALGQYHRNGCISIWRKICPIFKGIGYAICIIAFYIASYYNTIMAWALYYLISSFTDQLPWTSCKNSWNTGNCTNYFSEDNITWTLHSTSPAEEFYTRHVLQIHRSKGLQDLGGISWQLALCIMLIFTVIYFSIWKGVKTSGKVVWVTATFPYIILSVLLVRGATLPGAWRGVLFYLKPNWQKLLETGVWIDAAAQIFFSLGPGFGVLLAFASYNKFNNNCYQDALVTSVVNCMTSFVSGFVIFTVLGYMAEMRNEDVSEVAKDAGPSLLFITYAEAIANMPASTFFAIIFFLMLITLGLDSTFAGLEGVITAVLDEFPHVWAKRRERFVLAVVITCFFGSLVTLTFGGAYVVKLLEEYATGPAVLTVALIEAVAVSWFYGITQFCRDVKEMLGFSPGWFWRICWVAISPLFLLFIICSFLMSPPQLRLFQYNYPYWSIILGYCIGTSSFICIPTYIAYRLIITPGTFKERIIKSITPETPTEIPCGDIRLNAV

Glutamate, Kainate Site = assay: NovaScreen assay; format: binding
Oxytocin = target: T6, Oxytocin (Homo sapiens, UniProt P30559); assay: NovaScreen assay; format: binding; settings: read-out: Inhibition, 10 μM XL-647
T6 construct: NovaScreen
T6 sequence (P30559 whole entry): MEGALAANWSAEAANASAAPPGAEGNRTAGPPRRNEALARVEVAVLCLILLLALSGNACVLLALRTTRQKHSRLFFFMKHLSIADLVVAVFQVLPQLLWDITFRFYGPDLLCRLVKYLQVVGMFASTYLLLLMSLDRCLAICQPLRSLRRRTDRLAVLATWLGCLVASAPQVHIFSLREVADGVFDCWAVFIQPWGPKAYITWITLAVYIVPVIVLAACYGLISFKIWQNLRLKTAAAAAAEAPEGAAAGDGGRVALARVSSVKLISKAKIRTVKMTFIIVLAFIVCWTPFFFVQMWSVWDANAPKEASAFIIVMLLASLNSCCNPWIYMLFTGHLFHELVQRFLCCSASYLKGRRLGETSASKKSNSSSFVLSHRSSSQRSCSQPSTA

[4] = system: Phospho ERK Thr203/Tyr204; assay: Immunohistochemical analysis of phosphorylation in H1975 xenografts; format: in vivo, mouse; settings: 14-day dosing
Method: For immunohistochemical analysis of H1975, MDA-MB-231 and other xenografts, tumors were excised after euthanasia and fixed in zinc fixative (BD Biosciences) for 48 h before being processed into paraffin blocks. Serial sections at 5 μm were obtained from the area of largest possible surface for each tumor and stained using standard methods. The following antibodies were used: Ki67 (SP6; Labvision), CD31 (MECA.32; BD Biosciences), pERK^Thr202/Tyr204 (phospho-p44/42 mitogen-activated protein kinase; Cell Signaling Technology), pAKT^Ser473 (Cell Signaling Technology), and pEGFR^Tyr1068 (Cell Signaling Technology). For immunofluorescent staining, sections were then incubated with Alexa 594-conjugated goat anti-rabbit secondary antibody (Invitrogen) and mounted in Fluorescent Mounting Medium (DAKO) containing 4′,6-diamidino-2-phenylindole (Molecular Probes) as a nuclear counterstain. Fluorescent staining was visualized using a Zeiss Axiolmager and digitally captured using a Zeiss high-resolution camera coupled to AxioVision image analysis software. Two to three nonoverlapping representative fields were captured at ×200 or ×400 magnification depending on histologic readout and quantified using the integrated morphometric analysis functions in Metamorph software (Universal Imaging Corp.). Apoptotic cells were detected using terminal deoxynucleotidyl transferase-mediated dUTP nick end labeling in situ cell death detection kit according to the manufacturer's instructions (Roche Diagnostics GmbH).
CD31-positive tumor vessels, Ki67-positive proliferating cells, and pERK staining in each tumor section were identified and quantified using the integrated morphometric analysis functions in the ACIS automatic cellular imaging system (Clarient, Inc.) and reviewed by a blinded observer. Number of CD31-positive vessels were identified across 5 to 10 randomly chosen fields of equal size at ×100 magnification in viable tumor tissue and calculated as number of vessels per square millimeter for each tumor, averaged for each treatment group, and compared with vehicle-treated controls. Percentage Ki67-positive cells were calculated as the ratio between Ki67-positive cells divided by the total number of cells identified across 5 to 10 randomly chosen fields of equal size in viable tumor tissue. The results for each tumor and treatment group were averaged and compared with vehicle-treated controls. The level of pERK staining was determined as described above and calculated as the ratio of antibody staining divided by the total number of cells identified, averaged for each treatment group, and compared with vehicle-treated controls.
Results are presented as mean±SD or SE as indicated for each graph or table. For IC50 comparison in the A431 cell viability experiment, two sample Student's t tests were applied to determine P values for each IC50 pair assuming that the random fluctuations of replicates around the dose-response curve are distributed [log]normally with the individual replicates used as the ‘sample size’ for the t test (nine point dose response done in triplicate). For statistical analysis of immunohistochemical results from in vivo studies, two-tailed Student's t test analysis and Bonferroni correction were done to identify significant differences compared with vehicle control group (multiple use of a single vehicle control group) with a cumulative minimal requirement of P<0.05.

## COc1cc2c(Nc3ccc(Cl)c(Cl)c3F)ncnc2cc1OC[C@@H]1C[C@@H]2CN(C)C[C@@H]2C1 [XL-647, N-(3,4-dichloro-2-fluorophenyl)-7-({[(3aR,5r,6aS)-2-methyloctahydrocyclopenta[c]pyrrol-5-yl]methyl}oxy)-6-(methyloxy)quinazolin-4-amine]
EphB4
  IC50: 3 nM
[1]
  Inhibition, 10 μM XL-647: 32.32%
p-Y-HER2/ErbB2
  Single Dose Duration of Action (100 mg/kg, >50% inhibition): >72 h
p-Y-HER2/ErbB2; in vivo, read-out: Estimated IC50 (plasma concentration)
  IC50: 3600 nM
Vasopressin 1
  inhibition at 10 µM: 32.8%
CYP3A4
  CYP3A4 substrate, in words: substrate for CYP3A4-mediated metabolism
[2]
  inhibition at 10 µM: 2.03%
[3]
  Inhibition, 10 μM XL-647: 46.77%
Serotonin Transporter
  IC50: 188 nM
Serotonin Transporter; read-out: Inhibition, 10 μM XL-647
  inhibition at 10 µM: 101%
Glutamate, Kainate Site
  Inhibition, 10 μM XL-647: 0.89%
Oxytocin
  inhibition at 10 µM: -2.59%
[4]; 10 mg/kg
  Phospho ERK Thr203/Tyr204 % Cells: 20 ± 4.3%
  Phospho ERK Thr203/Tyr204 % Reduction: 11.8%
[4]; 30 mg/kg
  Phospho ERK Thr203/Tyr204 % Cells: 13 ± 4.9%
  Phospho ERK Thr203/Tyr204 % Reduction: 41.8^a %
[4]; 100 mg/kg
  Phospho ERK Thr203/Tyr204 % Cells: 10 ± 3.7%
  Phospho ERK Thr203/Tyr204 % Reduction: 57.1^a %
